Measurements taken from patent US20130225830A1, “POLYMORPHS OF FEBUXOSTAT” (MAPI PHARMA LIMITED, priority 2010, published 2013).
Where “and” joins values, the source holds several entries; their conditions need not be identical. Equal values may be shown once.

Key:
Assay type in all cases: physicochemical
[1] = Bulk and tapped density measurements
How it was run: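 Febuxostat forms passed through a 1.0 mm screen, weighed into a 10 mL graduated cylinder and leveled without compacting. Bulk density = mass/unsettled volume. Tapped density = mass/final volume after 500 then 750 further taps, Vb accepted when within 2% of Va.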

[2] = Physical stability measurements (XRPD, DSC, TGA)
Procedure: Testing conditions: 40° C., 60° C., 40° C./RH 75%, 60° C./RH 75%, light
Testing procedure: About 50 mg of a febuxostat form were weighed in glass vial for testing the physical stability and were stored under different conditions for 1 week and 2 weeks, separately. The same febuxostat form was stored at −20° C. as control. XRPD, DSC and TGA of each of the febuxostat forms were measured at the end of the first and second weeks.

[3] = Aqueous solubility measurements; details: for pH: final pH of saturated solution
How it was run: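 Febuxostat form shaken 24 h at 25° C in water, USP buffers pH 1.2-7.4, 0.01/0.1 N HCl, SGF, FaSSIF (pH 6.5) or FeSSIF (pH 5.0). Saturated solution filtered and filtrate concentration measured by HPLC, final pH recorded; duplicates.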

[4] = Solid stability measurements (appearance, assay and total related substances by HPLC); details: for Remaining (%): one value for both samples, vs −20° C. control; for Appearance / TRS (%): samples 1 and 2
Procedure: The detailed chromatographic conditions are listed hereinbelow. The typical retention time of febuxostat main peak is 8.2 min. [table] Testing conditions: 40° C., 60° C., 40° C./RH 75%, 60° C./RH 75%, light Testing procedure: About 3 mg of a febuxostat form were weighed in a glass vial and stored under the different conditions for 1 week and 2 weeks, separately. The same febuxostat form was stored at −20° C. as control. The test was conducted in duplication. The physical appearance, assay and total related substances of each of the febuxostat forms were measured by HPLC at the end of the first and second weeks.

[5] = media 0.01N HCl, 24 hours at 25° C.
[6] = media 0.1N HCl, 24 hours at 25° C.
[7] = media FaSSIF, 24 hours at 25° C.
[8] = media FeSSIF, 24 hours at 25° C.
[9] = media pH 1.2 (USP), 24 hours at 25° C.
[10] = media pH 4.5 (USP), 24 hours at 25° C.
[11] = media pH 6.8 (USP), 24 hours at 25° C.
[12] = media pH 7.4 (USP), 24 hours at 25° C.
[13] = media water, 24 hours at 25° C.

Cc1nc(-c2ccc(OCC(C)C)c(C#N)c2)sc1C(=O)O [Form XI, 2-(3-cyano-4-isobutoxyphenyl)-4-methyl-5-thiazolecarboxylic acid]
Bulk Density [1]: 0.346 g/mL
Tapped Density [1]: 0.553 g/mL
bulk and tapped densities (in words) ([1]; compared among forms V, IX, XI and form G): adequate bulk and tapped densities
physical stability (XRPD, DSC, TGA) ([2]; 40° C., 60° C. and light at the end of the first and second week): stable
physical stability (XRPD, DSC, TGA), form conversion ([2]; 40° C./75% RH at the end of the first week): completely converted to form G
physical stability (XRPD, DSC, TGA), form conversion ([2]; 40° C./75% RH at the end of the second week): completely converted to form G
physical stability (XRPD, DSC, TGA), form conversion ([2]; 60° C./75% RH at the end of the first and second weeks): completely converted to form G
pH [3, 5]: 1.981
pH [3, 6]: 0.967
pH [3, 7]: 6.336
pH [3, 8]: 4.998
pH ([3]; media SGF, 24 hours at 25° C.): 2.114
pH [3, 9]: 1.132
pH [3, 10]: 4.479
pH [3, 11]: 6.684
pH [3, 12]: 6.905
pH ([3]; media water, shaken 24 hours at 25° C.): 8.106
Visual solubility [3, 5]: few particles
Visual solubility [3, 6]: few particles
HPLC solubility [3, 7]: 521.19 µg/mL
Visual solubility [3, 7]: Turbid + few particles
HPLC solubility [3, 8]: 149.95 µg/mL
Visual solubility [3, 8]: Turbid + few particles
Visual solubility ([3]; media SGF, 24 hours at 25° C.): few particles
Visual solubility [3, 9]: few particles
HPLC solubility [3, 10]: 0.49 µg/mL
Visual solubility [3, 10]: few particles
HPLC solubility [3, 11]: 931.90 µg/mL
Visual solubility [3, 11]: Turbid + few particles
HPLC solubility [3, 12]: 4464.94 µg/mL
Visual solubility [3, 12]: Slightly turbid + few
HPLC solubility [3, 13]: 33.82 µg/mL
Visual solubility [3, 13]: Turbid + few particles
aqueous solubility (in words) ([3]; pH1.2 USP buffer, 0.01N HCl, 0.1N HCl and SGF): poor solubility
aqueous solubility (in words) ([3]; pH6.8 USP buffer, pH7.4 USP buffer, FaSSIF, FeSSIF): good solubility
change of assay and TRS (in words) ([4]; 40° C., 60° C., 40° C./75% RH, 60° C./75% RH at end of the first and second weeks): no significant change
Remaining (%) ([4]; 40° C., 7 d): 99.02%
Appearance ([4]; 40° C., 7 d): No change
TRS (%) ([4]; 40° C., 7 d): 1.25% and 1.24%
Remaining (%) ([4]; 40° C., 14 d): 100.12%
Appearance ([4]; 40° C., 14 d): No change
TRS (%) ([4]; 40° C., 14 d): 1.26% and 1.27%
Remaining (%) ([4]; 40° C./75% RH, 7 d): 99.02%
Appearance ([4]; 40° C./75% RH, 7 d): No change
TRS (%) ([4]; 40° C./75% RH, 7 d): 1.28%
Remaining (%) ([4]; 40° C./75% RH, 14 d): 100.75%
Appearance ([4]; 40° C./75% RH, 14 d): No change
TRS (%) ([4]; 40° C./75% RH, 14 d): 1.30% and 1.29%
Remaining (%) ([4]; 60° C., 7 d): 98.56%
Appearance ([4]; 60° C., 7 d): No change
TRS (%) ([4]; 60° C., 7 d): 1.31% and 1.30%
Remaining (%) ([4]; 60° C., 14 d): 99.72%
Appearance ([4]; 60° C., 14 d): No change
TRS (%) ([4]; 60° C., 14 d): 1.33%
Remaining (%) ([4]; 60° C./75% RH, 7 d): 98.44%
Appearance ([4]; 60° C./75% RH, 7 d): No change
TRS (%) ([4]; 60° C./75% RH, 7 d): 1.33% and 1.31%
Remaining (%) ([4]; 60° C./75% RH, 14 d): 99.82%
Appearance ([4]; 60° C./75% RH, 14 d): No change
TRS (%) ([4]; 60° C./75% RH, 14 d): 1.35% and 1.36%
Remaining (%) ([4]; Light, 7 d): 96.26%
Appearance ([4]; Light, 7 d): Light yellow
TRS (%) ([4]; Light, 7 d): 1.86% and 2.09%
Remaining (%) ([4]; Light, 14 d): 95.06%
Appearance ([4]; Light, 14 d): Light yellow
TRS (%) ([4]; Light, 14 d): 4.88% and 4.32%
Appearance ([4]; −20° C. (control), 7 d): No change
TRS (%) ([4]; −20° C. (control), 7 d): 1.22%
Appearance ([4]; −20° C. (control), 14 d): No change
TRS (%) ([4]; −20° C. (control), 14 d): 1.23%
